Source: ChEMBL document CHEMBL1138618, “NMDA receptor affinities of 1,2-diphenylethylamine and 1-(1,2-diphenylethyl)piperidine enantiomers and of related compounds” (Bioorg Med Chem, 2009)

These compounds were tested on Glutamate NMDA receptor (assay: Displacement of [3H]MK801 from NMDA receptor in rat brain neuronal membrane). Conditions: not given; call rule not given here.
Format: cell membranes

In the case of `COc1ccc2c(c1)C13CCCC[C@@H]1C(C2)NCC3` (single isomer, unassigned), the Ki is reported as “Not Active”.

Same assay, conditions: read-out: Ki

First: N[C@H](c1ccccc1)[C@@H](O)c1ccccc1
Second: N[C@@H](c1ccccc1)[C@H](O)c1ccccc1
The Ki of the first is 9-fold lower: 15.7 µM for the first, 142 µM for the second. The first binds more tightly here.

First: N[C@@H](CC1CCCCC1)C1CCCCC1
Second: N[C@H](CC1CCCCC1)C1CCCCC1
The Ki of the first is 2-fold higher: 271 µM for the first, 138 µM for the second.

`COC(=O)[C@@H](N)c1ccccc1` and `COC(=O)[C@H](N)c1ccccc1` are within 1.5-fold of each other in Ki: 1980 µM for the first, 1370 µM for the second.

Compared with `NCC(c1ccccc1)c1ccccc1`, `NC(c1ccccc1)c1ccccc1` [AMINODIPHENYLMETHANE] is 2.3-fold lower in Ki: 145 µM for the first, 64 µM for the second.

First: COc1ccc2c(c1)[C@]13CCCC[C@@H]1[C@H](C2)NCC3
Second: N[C@@]1(c2ccccc2Cl)CCCCC1=O
The Ki of the first is 32-fold lower: 1.7 µM for the first, 55 µM for the second.

First: N[C@@H](c1ccccc1)[C@@H](N)c1ccccc1
Second: N[C@H](c1ccccc1)[C@H](N)c1ccccc1
The Ki of the first is 12-fold higher: 51 µM for the first, 4.12 µM for the second.

Compared with `C[C@@](N)(Cc1ccccc1)c1ccccc1`, `C[C@](N)(Cc1ccccc1)c1ccccc1` is 10-fold lower in Ki: 8.08 µM for the first, 0.79 µM for the second.

Going from `CN[C@]1(c2ccccc2Cl)CCCCC1=O` [ESKETAMINE] to `CN[C@@]1(c2ccccc2Cl)CCCCC1=O`, the Ki rises from 0.96 µM to 5.68 µM (5.9-fold). The first binds more tightly here.

`NCc1ccccc1` [BENZYLAMINE] and `NCCc1ccccc1` [PHENETHYLAMINE] are within 1.5-fold of each other in Ki: 1060 µM for the first, 753 µM for the second.

Compared with `N[C@H]1C[C@@H]1c1ccccc1` [(+)-TRANYLCYPROMINE], `N[C@@H]1C[C@H]1c1ccccc1.N[C@H]1C[C@@H]1c1ccccc1` [TRANYLCYPROMINE] is 2-fold higher in Ki: 269 µM for the first, 544 µM for the second. The first binds more tightly here.

First: c1ccc(C2(N3CCCCC3)CCCCC2)cc1 [PHENCYCLIDINE]
Second: c1ccc(C[C@@H](c2ccccc2)N2CCCCC2)cc1
The Ki of the first is 2.3-fold higher: 0.27 µM for the first, 0.12 µM for the second. The second binds more tightly here.

Going from `C[C@H](N)Cc1ccccc1` [DEXTROAMPHETAMINE] to `C[C@@H](N)Cc1ccccc1` [LEVAMFETAMINE], the Ki rises from 300 µM to 625 µM (2.1-fold).

`N[C@]1(c2ccccc2Cl)CCCCC1=O` and `c1ccc(C[C@H](c2ccccc2)N2CCCCC2)cc1` are within 1.5-fold of each other in Ki: 4.18 µM for the first, 5.25 µM for the second.

`C[C@H](N)c1ccccc1` and `C[C@@H](N)c1ccccc1` are within 1.5-fold of each other in Ki: 622 µM for the first, 659 µM for the second.

Compared with `N[C@H](Cc1ccccc1)c1ccccc1`, `N[C@@H](Cc1ccccc1)c1ccccc1` is 36-fold lower in Ki: 25.1 µM for the first, 0.7 µM for the second. The second binds more tightly here.

Compared with `N[C@@H](Cc1ccccn1)c1ccccc1` [LANICEMINE], `N[C@H](Cc1ccccn1)c1ccccc1` is 6-fold higher in Ki: 14 µM for the first, 84 µM for the second.
